Measurements: patent publication US9464120B2, “Compositions for treatment of celiac disease” (ImmusanT, Inc., priority 2008, dated 2016)
Square brackets hold non-standard residues; d marks the D form. Peptide text beside a SMILES is read from it. pGlu = O=C1CC[C@@H](C(=O)O)N1

What was measured:
[1] = tested on: gluten peptide-specific T cells in PBMC from HLA-DQ2+ celiac disease donors; assay: IFNγ ELISpot of PBMC collected on day 6 after oral gluten challenge; type: cell-based, human; conditions: for donors with IFNγ ELISpot response: 9 HLA DQ2 celiac disease donors, PBMC day 6 after wheat gluten challenge, 17mer and 33mer at 5 μM; for requirement for deamidation for T cell stimulation / dominance according to the grain consumed: second round libraries; for relative T-cell stimulatory activity: PBMC after wheat challenge, tTG pre-treated or glutamate substituted; for activity relative to α-gliadin p57-73 QE65: pre-treated with tTG or with glutamate at position 9, 25 μg/ml, mean±SEM, n=5 donors; for dominance according to the grain consumed: wheat, barley or rye gluten challenge
[2] = Pharmacokinetics after bolus intradermal injection in an adult rat; type: in vivo; conditions: rat, in vivo, 0.9 mg; for half-life: T1/2 half life
Description: To improve their chemical stability and increase resistance to exopeptidases, peptides were synthesised as acetate salts of “capped” N-pyroglutamate, C-amide: NPL001 (SEQ ID NO:228), NPL002 (SEQ ID NO:229) and NPL003 (SEQ ID NO:230) 15mers or 16mers with glutamate at sites predicted to be deamidated by tTG. Indeed, capping extended the half-lives of peptides from 10-12 minutes for free peptides: NPL033, NPL038, and NPL034 (SEQ ID NOs:13, 320 and 321) after bolus intradermal injection of 0.9 mg in 0.1 ml in an adult rat to 26-28 minutes with N-pyroglutamate and C-amidation (SEQ ID NOs:228, 229 and 230) or 19-24 minutes with N-acetylation and C-amidation (SEQ ID NOs:231, 232, and 233), (see Table 4).

Compound: 15mer encompassing deamidated DQ2-γ-IV: deamidated 15mer encompassing the epitope DQ2-γ-IV SQPEQEFPQ reported for intestinal T cell clones [reference compound]
- donors with IFNγ ELISpot response [1]: One

Compound: CC[C@H](C)[C@H](NC(=O)[C@@H]1CCCN1C(=O)[C@H](CCC(N)=O)NC(=O)[C@H](CCC(=O)O)NC(=O)[C@@H]1CCCN1C(=O)[C@@H]1CCC(=O)N1)C(=O)N1CCC[C@H]1C(=O)N[C@@H](CCC(=O)O)C(=O)N[C@@H](CCC(N)=O)C(=O)N1CCC[C@H]1C(=O)N[C@@H](CCC(N)=O)C(=O)N1CCC[C@H]1C(=O)N[C@@H](Cc1ccc(O)cc1)C(=O)N1CCC[C@H]1C(=O)N[C@@H](CCC(N)=O)C(=O)N[C@@H](CCC(N)=O)C(N)=O [NPL003, pyroEPEQPIPEQPQPYPQQ-amide] ([pGlu]PEQPIPEQPQPYPQQ-NH2)
- half-life [2]: 26 to 28 min

Compound: CC(=O)N[C@@H](CCC(N)=O)C(=O)N[C@@H](CC(C)C)C(=O)N[C@@H](CCC(N)=O)C(=O)N1CCC[C@H]1C(=O)N[C@@H](Cc1ccccc1)C(=O)N1CCC[C@H]1C(=O)N[C@@H](CCC(N)=O)C(=O)N1CCC[C@H]1C(=O)N[C@@H](CCC(=O)O)C(=O)N[C@@H](CC(C)C)C(=O)N1CCC[C@H]1C(=O)N[C@@H](Cc1ccc(O)cc1)C(=O)N1CCC[C@H]1C(=O)N[C@@H](CCC(N)=O)C(=O)N1CCC[C@H]1C(=O)N[C@@H](CCC(N)=O)C(N)=O [NPL030, Ac-QLQPFPQPELPYPQPQ-amide] (Ac-QLQPFPQPELPYPQPQ-NH2)
- AUC area under the curve (bioavailability) [2]: AUC 43474
- T1/2 half life [2]: T1/2 19.4 minutes
- half-life [2]: 19 to 24 min

Compound: CC(=O)N[C@@H](CCC(N)=O)C(=O)N[C@@H](CCC(N)=O)C(=O)N1CCC[C@H]1C(=O)N[C@@H](Cc1ccccc1)C(=O)N1CCC[C@H]1C(=O)N[C@@H](CCC(N)=O)C(=O)N1CCC[C@H]1C(=O)N[C@@H](CCC(=O)O)C(=O)N[C@@H](CCC(N)=O)C(=O)N1CCC[C@H]1C(=O)N[C@@H](Cc1ccccc1)C(=O)N1CCC[C@H]1C(=O)N[C@@H](Cc1c[nH]c2ccccc12)C(=O)N[C@@H](CCC(N)=O)C(=O)N1CCC[C@H]1C(N)=O [NPL031, Ac-QQPFPQPEQPFPWQP-amide] (Ac-QQPFPQPEQPFPWQP-NH2)
- AUC area under the curve (bioavailability) [2]: AUC 80263
- T1/2 half life [2]: T1/2 22.9 minutes
- half-life [2]: 19 to 24 min

Compound: CC[C@H](C)[C@H](NC(=O)[C@@H]1CCCN1C(=O)[C@H](CCC(N)=O)NC(=O)[C@H](CCC(=O)O)NC(=O)[C@@H]1CCCN1C(=O)[C@H](Cc1ccccc1)NC(C)=O)C(=O)N1CCC[C@H]1C(=O)N[C@@H](CCC(=O)O)C(=O)N[C@@H](CCC(N)=O)C(=O)N1CCC[C@H]1C(=O)N[C@@H](CCC(N)=O)C(=O)N1CCC[C@H]1C(=O)N[C@@H](Cc1ccc(O)cc1)C(=O)N1CCC[C@H]1C(=O)N[C@@H](CCC(N)=O)C(=O)N[C@@H](CCC(N)=O)C(N)=O [NPL032, Ac-FPEQPIPEQPQPYPQQ-amide] (Ac-FPEQPIPEQPQPYPQQ-NH2)
- AUC area under the curve (bioavailability) [2]: AUC 8206
- T1/2 half life [2]: T1/2 12.5 minutes
- half-life [2]: 19 to 24 min

Compound: CC(C)C[C@H](NC(=O)[C@H](CCC(=O)O)NC(=O)[C@@H]1CCCN1C(=O)[C@H](CCC(N)=O)NC(=O)[C@@H]1CCCN1C(=O)[C@H](Cc1ccccc1)NC(=O)[C@@H]1CCCN1C(=O)[C@H](CCC(N)=O)NC(=O)[C@@H](N)CC(C)C)C(=O)N1CCC[C@H]1C(=O)N[C@@H](Cc1ccc(O)cc1)C(=O)N1CCC[C@H]1C(=O)N[C@@H](CCC(N)=O)C(=O)N1CCC[C@H]1C(=O)N[C@@H](CCC(N)=O)C(=O)O [NPL033, LQPFPQPELPYPQPQ] (H-LQPFPQPELPYPQPQ-OH)
- AUC area under the curve (bioavailability) [2]: AUC 2618
- half-life [2]: 10 to 12 min

Compound: CC[C@H](C)[C@H](NC(=O)[C@@H]1CCCN1C(=O)[C@H](CCC(N)=O)NC(=O)[C@H](CCC(=O)O)NC(=O)[C@@H]1CCCN1C(=O)[C@@H](N)Cc1ccccc1)C(=O)N1CCC[C@H]1C(=O)N[C@@H](CCC(=O)O)C(=O)N[C@@H](CCC(N)=O)C(=O)N1CCC[C@H]1C(=O)N[C@@H](CCC(N)=O)C(=O)N1CCC[C@H]1C(=O)N[C@@H](Cc1ccc(O)cc1)C(=O)N1CCC[C@H]1C(=O)N[C@@H](CCC(N)=O)C(=O)N[C@@H](CCC(N)=O)C(=O)O [NPL034, FPEQPIPEQPQPYPQQ] (H-FPEQPIPEQPQPYPQQ-OH)
- half-life [2]: 10 to 12 min

Compound: NC(=O)CC[C@H](NC(=O)[C@@H]1CCCN1)C(=O)N[C@@H](CCC(N)=O)C(=O)N1CCC[C@H]1C(=O)N[C@@H](Cc1ccccc1)C(=O)N1CCC[C@H]1C(=O)N[C@@H](CCC(N)=O)C(=O)N1CCC[C@H]1C(=O)N[C@@H](CCC(=O)O)C(=O)N[C@@H](CCC(N)=O)C(=O)N1CCC[C@H]1C(=O)N[C@@H](Cc1ccccc1)C(=O)N1CCC[C@H]1C(=O)N[C@@H](Cc1c[nH]c2ccccc12)C(=O)N[C@@H](CCC(N)=O)C(=O)N1CCC[C@H]1C(=O)O [NPL038, PQQPFPQPEQPFPWQP] (H-PQQPFPQPEQPFPWQP-OH)
- AUC area under the curve (bioavailability) [2]: AUC 22393
- T1/2 half life [2]: T1/2 13.2 minutes
- half-life [2]: 10 to 12 min

Compound: GQGQSGYYPTSPQQSG (W29)
- requirement for deamidation for T cell stimulation [1]: Exceptions to the requirement for deamidation

Compound: LQLQPFPQPELPYPQPELPYPQPELPYPQPQPF (deamidated alpha2-gliadin 56-88) [33mer, reference compound]
- donors with IFNγ ELISpot response [1]: 7 donors

Compound: PGQGQSGYYPTSPQQS (W24)
- requirement for deamidation for T cell stimulation [1]: Exceptions to the requirement for deamidation

Compound: PQPQPFLPELPYPQPQS (gluten derived peptide) [SEQ ID NO:26]
- relative T-cell stimulatory activity [1]: almost as active as 17mers encompassing DQ2-α-II

Compound: PQPQPFLPQLPYPQPQS (gluten derived peptide) [W09]
- relative T-cell stimulatory activity [1]: almost as active as 17mers encompassing DQ2-α-II

Compound: PQQPFPQPELPFPQQSE (deamidated AAG17702 (141-157)) [SEQ ID NO:29]
- activity relative to α-gliadin p57-73 QE65 [1]: 32±6%

Compound: PQQPFPQPQLPFPQQSE (AAG17702 (141-157))
- activity relative to α-gliadin p57-73 QE65 [1]: 32±6%

Compound: PQQPIPEQPQPYPQQP (B08-E7)
- dominance according to the grain consumed [1]: only after barley gluten challenge

Compound: QGQPGYYPTSPQQIGQ (W22)
- requirement for deamidation for T cell stimulation [1]: Exceptions to the requirement for deamidation

Compound: QGQQGYYPISPQQSGQ (W21)
- requirement for deamidation for T cell stimulation [1]: Exceptions to the requirement for deamidation

Compound: QLQPFPQPELPYPQPQL (variant of alpha-gliadin p57-73 QE65) [SEQ ID NO:46]
- donors with IFNγ ELISpot response [1]: 7 donors

Compound: QLQPFPQPELPYPQPQP (gluten derived peptide) [SEQ ID NO:225]
- dominance according to the grain consumed [1]: dominant only after wheat gluten challenge

Compound: QPEQPFPQPEQPFPWQP (W03-E7)
- relative T-cell stimulatory activity [1]: equivalent in bioactivity
- dominance according to the grain consumed [1]: universal dominant T cell stimulatory peptide in gluten

Compound: QPFPQQPEQIIPQQ (gluten derived peptide) [SEQ ID NO:323]
- dominance according to the grain consumed [1]: only after rye gluten challenge

Compound: QPQQPFPQPEQPFPWQP (Q3 E10 variant) [SEQ ID NO:54]
- relative T-cell stimulatory activity [1]: optimal immunogenicity
